Source: publication PMC6008465 (British Journal of Cancer, 2018)

Legend:
[1] = test system: patients with advanced solid tumours; assay: Phase 1 Part A (dose escalation): safety, DLT, MTD; assay type: in vivo, human; conditions: Part A
Description: The primary objectives of this phase 1 study were to evaluate the safety, tolerability, and MTD of once-weekly (Schedule I) and twice-weekly (Schedule II) dosing. Secondary objectives included evaluation of the PK profile of E6201. […] Toxicity was managed by dose interruption, reduction, and/or discontinuation. Only Cycle 1 adverse events (AEs) were evaluable as DLTs. Based on AEs reported at 480 mg/m^2 and 400 mg/m^2, the protocol was amended to include up to 6 additional toxicity-evaluable patients at 320 mg/m^2, to confirm this as the MTD. All ongoing patients could continue at 320 mg/m^2, regardless of initial starting dose.
Safety was assessed by monitoring AEs, serious AEs (SAEs), laboratory parameters, vital signs, 12-lead electrocardiograms (ECGs), Eastern Cooperative Oncology Group performance status, and symptom-directed physical and neurologic examination findings. AEs were graded by investigators based on the National Cancer Institute Common Terminology Criteria for Adverse Events, version 3.[16]

[2] = test system: phosphor-ERK levels; conditions: quoted in discussion, no reference given; read-out: IC50 for inhibition of phosphor-ERK levels; cited from earlier work

In the case of `CCNc1cc(O)c2c(c1)/C=C/C[C@H](O)[C@H](O)C(=O)/C=C\[C@@H](C)[C@H](C)OC2=O` [E6201, (3S,4R,5Z,8S,9S,11E)-14-(ethylamino)-8,9,16-trihydroxy-3,4-dimethyl-3,4,9,19-tetrahydro-1H-2-benzoxacyclotetradecine-1,7 (8H)-dione], the “Hypokalemia TEAE incidence, All grades” value ([1]; 320 mg/m^2 (n=7)) is reported as 2 (28.6) n (%), the “Hypokalemia TEAE incidence, G≥3” value ([1]; 320 mg/m^2 (n=7)) is reported as 0 n (%) and the “Nausea TEAE incidence, All grades” value ([1]; 320 mg/m^2 (n=7)) is reported as 5 (71.4) n (%). The “Nausea TEAE incidence, G≥3” value ([1]; 320 mg/m^2 (n=7)) was 1 (14.3) n (%), the “Patients with a DLT (QTcF increase from baseline > 60 ms) and grade 2 CNS toxicities” value ([1]; 320 mg/m^2 (n=7)) was “One” and the “Peripheral edema TEAE incidence, All grades” value ([1]; 320 mg/m^2 (n=7)) was 1 (14.3) n (%). For the same compound, the “Peripheral edema TEAE incidence, G≥3” value ([1]; 320 mg/m^2 (n=7)) was 1 (14.3) n (%), the “Vomiting TEAE incidence, All grades” value ([1]; 320 mg/m^2 (n=7)) was 4 (57.1) n (%) and the “Vomiting TEAE incidence, G≥3” value ([1]; 320 mg/m^2 (n=7)) was 0 n (%). For the same compound, the “Patients with grade 3 bradycardia (unrelated to E6201)” value ([1]; 320 mg/m^2 group) was “one”, the “Deaths (abnormal hepatic function, possibly related to E6201)” value ([1]; 320 mg/m^2 group, post-Cycle 1) was 1 patient and the “Patients with CNS toxicity (grade 1 dizziness) treated conservatively as a DLT” value ([1]; 400 mg/m^2) was 1 patient. For the same compound, the “Abdominal pain TEAE incidence, All grades” value ([1]; 400 mg/m^2 (n=1)) was 0 n (%), the “Abdominal pain TEAE incidence, G≥3” value ([1]; 400 mg/m^2 (n=1)) was 0 n (%) and the “Constipation TEAE incidence, All grades” value ([1]; 400 mg/m^2 (n=1)) was 0 n (%). For the same compound, the “Constipation TEAE incidence, G≥3” value ([1]; 400 mg/m^2 (n=1)) was 0 n (%), the “Decreased appetite TEAE incidence, All grades” value ([1]; 400 mg/m^2 (n=1)) was 0 n (%) and the “Decreased appetite TEAE incidence, G≥3” value ([1]; 400 mg/m^2 (n=1)) was 0 n (%). For the same compound, the “Fatigue TEAE incidence, All grades” value ([1]; 400 mg/m^2 (n=1)) was 0 n (%), the “Fatigue TEAE incidence, G≥3” value ([1]; 400 mg/m^2 (n=1)) was 0 n (%) and the “Hypokalemia TEAE incidence, All grades” value ([1]; 400 mg/m^2 (n=1)) was 1 (100) n (%). For the same compound, the “Hypokalemia TEAE incidence, G≥3” value ([1]; 400 mg/m^2 (n=1)) was 1 (100) n (%), the “Nausea TEAE incidence, All grades” value ([1]; 400 mg/m^2 (n=1)) was 0 n (%) and the “Nausea TEAE incidence, G≥3” value ([1]; 400 mg/m^2 (n=1)) was 0 n (%). For the same compound, the “Peripheral edema TEAE incidence, All grades” value ([1]; 400 mg/m^2 (n=1)) was 0 n (%), the “Peripheral edema TEAE incidence, G≥3” value ([1]; 400 mg/m^2 (n=1)) was 0 n (%) and the “Vomiting TEAE incidence, All grades” value ([1]; 400 mg/m^2 (n=1)) was 0 n (%). For the same compound, the “Vomiting TEAE incidence, G≥3” value ([1]; 400 mg/m^2 (n=1)) was 0 n (%), the “Abdominal pain TEAE incidence, All grades” value ([1]; 480 mg/m^2 (n=4)) was 1 (25.0) n (%) and the “Abdominal pain TEAE incidence, G≥3” value ([1]; 480 mg/m^2 (n=4)) was 0 n (%). The “Constipation TEAE incidence, All grades” value ([1]; 480 mg/m^2 (n=4)) was 2 (50.0) n (%), the “Constipation TEAE incidence, G≥3” value ([1]; 480 mg/m^2 (n=4)) was 0 n (%) and the “Decreased appetite TEAE incidence, All grades” value ([1]; 480 mg/m^2 (n=4)) was 1 (25.0) n (%). The “Decreased appetite TEAE incidence, G≥3” value ([1]; 480 mg/m^2 (n=4)) was 0 n (%), the “Fatigue TEAE incidence, All grades” value ([1]; 480 mg/m^2 (n=4)) was 2 (50.0) n (%) and the “Fatigue TEAE incidence, G≥3” value ([1]; 480 mg/m^2 (n=4)) was 0 n (%). For the same compound, the “Hypokalemia TEAE incidence, All grades” value ([1]; 480 mg/m^2 (n=4)) was 2 (50.0) n (%), the “Hypokalemia TEAE incidence, G≥3” value ([1]; 480 mg/m^2 (n=4)) was 0 n (%) and the “Nausea TEAE incidence, All grades” value ([1]; 480 mg/m^2 (n=4)) was 1 (25.0) n (%). For the same compound, the “Nausea TEAE incidence, G≥3” value ([1]; 480 mg/m^2 (n=4)) was 0 n (%), the “Peripheral edema TEAE incidence, All grades” value ([1]; 480 mg/m^2 (n=4)) was 0 n (%) and the “Peripheral edema TEAE incidence, G≥3” value ([1]; 480 mg/m^2 (n=4)) was 0 n (%). The “Vomiting TEAE incidence, All grades” value ([1]; 480 mg/m^2 (n=4)) was 1 (25.0) n (%), the “Vomiting TEAE incidence, G≥3” value ([1]; 480 mg/m^2 (n=4)) was 0 n (%) and the “QTcF prolongation to >500 ms, patients” value ([1]; 480 mg/m^2, Cycle 2) was “one”. The “Patients with DLTs” value ([1]; 480 mg/m^2, QTcF > 500 ms, grade 4 confusion, QTcF increase > 60 ms) was 3 patients, the “Grade 3/4 ECG QT prolonged, patients” value ([1]; 2 patients) was 8.0% and the “Grade 3/4 abdominal pain, patients” value ([1]; 2 patients) was 8.0%. The “Grade 3/4 hyperbilirubinemia, patients” value ([1]; 2 patients) was 8.0%, the “Grade 3/4 syncope, patients” value ([1]; 2 patients) was 8.0% and the “Treatment-emergent SAEs other than death, patients” value ([1]; 8 patients) was 32.0%. The “Grade 3/4 TEAEs, patients” value ([1]; 11 patients) was 44.0%, the “QT prolongation reported as an AE (Grade 2/3, DLT, probably related), patients” value ([1]; 30-min infusion, three patients) was 12.0% and the “Patients with ≥1 TEAE assessed as treatment-related” value ([1]; Eleven patients) was 44.0%. The “Abdominal pain TEAE incidence, All grades” value ([1]; Total (N=25)) was 6 (24.0) n (%), the “Abdominal pain TEAE incidence, G≥3” value ([1]; Total (N=25)) was 2 (8.0) n (%) and the “Constipation TEAE incidence, All grades” value ([1]; Total (N=25)) was 7 (28.0) n (%). For the same compound, the “Constipation TEAE incidence, G≥3” value ([1]; Total (N=25)) was 0 n (%), the “Decreased appetite TEAE incidence, All grades” value ([1]; Total (N=25)) was 5 (20.0) n (%) and the “Decreased appetite TEAE incidence, G≥3” value ([1]; Total (N=25)) was 1 (4.0) n (%). For the same compound, the “Fatigue TEAE incidence, All grades” value ([1]; Total (N=25)) was 7 (28.0) n (%), the “Fatigue TEAE incidence, G≥3” value ([1]; Total (N=25)) was 1 (4.0) n (%) and the “Hypokalemia TEAE incidence, All grades” value ([1]; Total (N=25)) was 7 (28.0) n (%). For the same compound, the “Hypokalemia TEAE incidence, G≥3” value ([1]; Total (N=25)) was 1 (4.0) n (%), the “Nausea TEAE incidence, All grades” value ([1]; Total (N=25)) was 9 (36.0) n (%) and the “Nausea TEAE incidence, G≥3” value ([1]; Total (N=25)) was 1 (4.0) n (%). For the same compound, the “Peripheral edema TEAE incidence, All grades” value ([1]; Total (N=25)) was 4 (16.0) n (%), the “Peripheral edema TEAE incidence, G≥3” value ([1]; Total (N=25)) was 1 (4.0) n (%) and the “Vomiting TEAE incidence, All grades” value ([1]; Total (N=25)) was 7 (28.0) n (%). The “Vomiting TEAE incidence, G≥3” value ([1]; Total (N=25)) was 0 n (%), the “QTcF increase of 30–60 ms from baseline, patients” value ([1]; five patients) was 20.0% and the “QTcF prolongation to 450–500 ms, patients” value ([1]; five patients across dose groups) was 20.0%. The “QTcF increase of >60 ms from baseline, patients” value ([1]; two patients) was 8.0%, the “Maximum-tolerated dose (MTD)” value ([1]; 30-min IV infusion once-weekly for 3 weeks of a 28-day cycle) was 320 mg/m^2 and the IC50 [2] was 2.08 nM.
